Experimental data reported in US20050233470A1, “Methods and compound mixtures for determining protein activity using nmr spectroscopy” (priority 2002, published 2005).

Conditions: rat, in vivo
Description: Urine samples were collected immediately before administration and then at 1 h and 2.5 h after administration. […] Blood samples were collected immediately before administration and then at 1, 2 and 3 h after administration. After collection, blood samples were spun down at 2000 rpm for 10 min. and the plasma was collected. Both, plasma and urine samples were frozen at −20° C.
Aliquots of the stock solution ([…]) were mixed with 40 μl biofluid (urine or blood plasma) to give a 15 mM trityl radical solution. These solutions were dispensed as droplets into liquid nitrogen to provide the material as vitrified pellets suitable for hyperpolarisation. The solid samples were placed in turn within the DNP magnet and hyperpolarised overnight. The samples were dissolved by injection of a mixture of methanol and acetic acid (100:1). The dissolved samples were quickly manually transferred (approx. 4 s transfer time) to a high-resolution magnet of 9.4 T and single acquisition ^13C-1D-NMR-spectra were acquired.
Quantification of the unknown amount of probe compound/metabolites in the biofluid samples was based on these enhancements and the known amount of probe compound/metabolite used to generate them. […]

| Signals present in NMR spectrum of urine sample | SMILES |
| --- | --- |
| present | N=C(N)N1Cc2ccccc2C(O)C1 (centres unmarked) [4-OH-Debrisoquine, 4-hydroxy-debrisoquine] |
| present | N=[13C](N)N1CCc2ccccc2C1 [Debrisoquine] |
